Consider 21 compounds from patent USRE47689E1, “Compounds for treating spinal muscular atrophy” (PTC Therapeutics, Inc., priority 2011, dated 2019).

In one data set the test system is Smn protein. Nature of the data set: Smn protein assay in cultured cells (SMN HTRF). It is filed as cell-based, human. As to conditions: 48 hours; for maximum fold (Fold) increase of Smn protein: SMA patient fibroblast cells, 7-point concentration data, fold increase relative to vehicle control (SMN HTRF); for EC1.5x (concentration giving 1.5-fold Smn protein increase): SMA Type 1 patient fibroblast cells (GM03813), 7-point concentration curve, SMN HTRF, concentration producing 1.5 times Smn protein vs DMSO vehicle control, read-out: EC1.5x for Smn protein expression. In a few lines:
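Lysates in RIPA with protease inhibitors are incubated overnight at room temperature with HTRF anti-SMN antibodies. EC1.5x is derived from fold increase in ΔF over vehicle.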

Data set [1] has as its system SMN2 minigene (full length SMN2 minigene mRNA containing SMN2 exon 7). Nature of the data set: SMN2 minigene mRNA splicing RT-qPCR assay in cultured cells. It is filed as cell-based, human. As to conditions: Homo sapiens, HEK293-H, read-out: EC1.5x for production of full length SMN2 mRNA. The essentials:
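HEK293H cells stably carrying the SMN2-A minigene treated 24 h at 37° C with compound (DMSO, 200× stock), then lysed. Multiplex RT-qPCR (SMN primers 0.4 μM final; 40 cycles) measures full-length exon 7-containing minigene mRNA, normalized to GAPDH and to vehicle; EC1.5x derived and binned by stars.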
On the technique in general: In qPCR the cycle at which signal appears reflects the starting amount.

Where [2] appears, read: HEK293H cells stably transfected with SMN2-A minigene, 24 hours, 7-point concentration curve, 1.5-fold relative to vehicle-treated cells.

Structures are written as SMILES. Read-outs that look alike come from different tables or passages of the source.

By melting point is commonly meant the temperature, or range, at which the solid turns liquid. Consider `CCN1CCC[C@H]2CN(c3ccc4cc(-c5cn6cc(C)nc(C)c6n5)c(=O)oc4c3)C[C@H]21` [Compound 803, 3-(6,8-dimethylimidazo[1,2-a]pyrazin-2-yl)-7-[(4aS,7aS)-1-ethyloctahydro-6H-pyrrolo[3,4-b]pyridin-6-yl]-2H-chromen-2-one], for which the melting point lay within 217 to 221 °C. The “maximum fold (Fold) increase of Smn protein” value (“maximum fold (Fold) increase” below) in the data set on Smn protein was “*** (fold increase between >1.35 and ≤1.5)”. For the same compound, the EC (1.5-fold) in data set [1] (setting [2]) is less than 0.1 µM.

For the compound `O=c1oc2cc(CN3CCCCC3)ccc2cc1-c1nc2c(Cl)cccc2s1` [Compound 60, 3-(4-chloro-1,3-benzothiazol-2-yl)-7-(piperidin-1-ylmethyl)-2H-chromen-2-one], the melting point is 191 to 195 °C. In the data set with Smn protein, the “maximum fold (Fold) increase” value is “** (fold increase between >1.2 and ≤1.35)”. In addition, the EC (1.5-fold) in data set [1] (setting [2]) was 1 to 3 µM.

`C[C@@H]1CN(c2ccc3cc(-c4cn5cnccc5n4)c(=O)oc3c2)C[C@H](C)N1` [Compound 459, 7-[(3R,5S)-3,5-dimethylpiperazin-1-yl]-3-(imidazo[1,2-c]pyrimidin-2-yl)-2H-chromen-2-one] had a melting point of 250 to 252 °C. Also, in the data set with Smn protein, the EC1.5x (concentration giving 1.5-fold Smn protein increase) fell in the range of 3000 to 10000 nM; the “maximum fold (Fold) increase” value was “*** (fold increase between >1.35 and ≤1.5)”. In addition, the EC (1.5-fold) in data set [1] (setting [2]) was less than 0.1 µM.

In the case of `Cc1cc(F)cn2cc(-c3cc4ccc(N5CCCN(C)CC5)cc4oc3=O)nc12` [Compound 330, 3-(6-fluoro-8-methylimidazo[1,2-a]pyridin-2-yl)-7-(4-methyl-1,4-diazepan-1-yl)-2H-chromen-2-one], the melting point fell in the range of 191 to 198 °C. In addition, in the data set with Smn protein, the “maximum fold (Fold) increase” value is “* (maximum fold increase of ≤1.2)”. Also, the EC (1.5-fold) in data set [1] (setting [2]) fell in the range of 0.3 to 1 µM.

`Cc1nc(Cl)cn2cc(-c3cc4ccc(N5CCN[C@@H](C)C5)cc4oc3=O)nc12` [Compound 713, 3-(6-chloro-8-methylimidazo[1,2-a]pyrazin-2-yl)-7-[(3S)-3-methylpiperazin-1-yl]-2H-chromen-2-one] registered a melting point of 235 to 238 °C. In the data set with Smn protein, the EC1.5x (concentration giving 1.5-fold Smn protein increase) is less than 300 nM; the “maximum fold (Fold) increase” value is “*** (fold increase between >1.35 and ≤1.5)”. For the same compound, the EC (1.5-fold) in data set [1] (setting [2]) was less than 0.1 µM.

`CCOc1cccc(-c2cc3ccc(N4CCN(C)CC4)cc3oc2=O)n1` [Compound 381, 3-(6-ethoxypyridin-2-yl)-7-(4-methylpiperazin-1-yl)-2H-chromen-2-one] came in with a melting point of 170 to 172 °C. The “maximum fold (Fold) increase” value in the data set with Smn protein was “* (maximum fold increase of ≤1.2)”. In data set [1] (setting [2]), the EC (1.5-fold) lay within 1 to 3 µM.

Turning to `CCN(CC)CCOc1ccc2cc(-c3cn4cc(C)nc(C)c4n3)c(=O)oc2c1` [Compound 895, 7-[2-(diethylamino)ethoxy]-3-(6,8-dimethylimidazo[1,2-a]pyrazin-2-yl)-2H-chromen-2-one], the melting point is 175 to 177 °C. In addition, in the data set with Smn protein, the EC1.5x (concentration giving 1.5-fold Smn protein increase) was less than 300 nM and the “maximum fold (Fold) increase” value is recorded as “***** (fold increase >1.65)”. Besides, in data set [1] (setting [2]), the EC (1.5-fold) was less than 0.1 µM.

`O=c1oc2cc(CN3CCCCC3)ccc2cc1-c1nc2ccccc2s1` [Compound 59, 3-(1,3-benzothiazol-2-yl)-7-(piperidin-1-ylmethyl)-2H-chromen-2-one]: the melting point fell in the range of 201 to 205 °C. Moreover, the “maximum fold (Fold) increase” value in the data set on Smn protein was “** (fold increase between >1.2 and ≤1.35)”. In addition, the EC (1.5-fold) in data set [1] (setting [2]) is 1 to 3 µM.

`CN1CCN(c2ccc3cc(-c4ccn(C)n4)c(=O)oc3c2)CC1` [Compound 73, 7-(4-methylpiperazin-1-yl)-3-(1-methyl-1H-pyrazol-3-yl)-2H-chromen-2-one] came in with a melting point of 183 to 186 °C. Moreover, the “maximum fold (Fold) increase” value with Smn protein is “** (fold increase between >1.2 and ≤1.35)”. In addition, in data set [1] (24 h), the EC (1.5-fold) fell in the range of 3 to 30 µM.

Regarding `Cc1cn2cc(-c3cc4ccc(N5C[C@@H](C)N[C@@H](C)C5)cc4oc3=O)cc2c(C)n1` [Compound 645, 7-[(3R,5S)-3,5-dimethylpiperazin-1-yl]-3-(1,3-dimethylpyrrolo[1,2-a]pyrazin-7-yl)-2H-chromen-2-one], the melting point lay in the range of 170 to 173 °C. In the data set with Smn protein, the EC1.5x (concentration giving 1.5-fold Smn protein increase) is less than 300 nM and the “maximum fold (Fold) increase” value was “***** (fold increase >1.65)”. Also, the EC (1.5-fold) in data set [1] (setting [2]) was less than 0.1 µM.

In turn, `C[C@H]1CN(c2ccc3cc(-c4cn5cc(Cl)cnc5n4)c(=O)oc3c2)CCN1` [Compound 376, 3-(6-chloroimidazo[1,2-a]pyrimidin-2-yl)-7-[(3S)-3-methylpiperazin-1-yl]-2H-chromen-2-one] yielded a melting point of 260 to 262 °C. The “maximum fold (Fold) increase” value in the data set with Smn protein is “* (maximum fold increase of ≤1.2)”. Besides, the EC (1.5-fold) in data set [1] (setting [2]) is 1 to 3 µM.

In turn, `COc1cc(-c2cc3ccc(N4CCNCC4)cc3oc2=O)ccc1C` [Compound 574, 3-(3-methoxy-4-methylphenyl)-7-(piperazin-1-yl)-2H-chromen-2-one] displayed a melting point of 170 to 174 °C. Besides, the “maximum fold (Fold) increase” value in the data set with Smn protein is given as “* (maximum fold increase of ≤1.2)”. For the same compound, the EC (1.5-fold) in data set [1] (setting [2]) was in the range of 1 to 3 µM.

Compound `O=c1oc2cc(N3CCNCC3)ccc2cc1-c1ccsc1` [Compound 319, 7-(piperazin-1-yl)-3-(thiophen-3-yl)-2H-chromen-2-one] had a melting point of 175 to 177 °C. Besides, in the data set on Smn protein, the “maximum fold (Fold) increase” value was “** (fold increase between >1.2 and ≤1.35)”. For the same compound, in data set [1] (24 h), the EC (1.5-fold) is 1 to 3 µM.

On to `CN1CCCN(c2ccc3cc(-c4cn5cnccc5n4)c(=O)oc3c2)CC1` [Compound 460, 3-(imidazo[1,2-c]pyrimidin-2-yl)-7-(4-methyl-1,4-diazepan-1-yl)-2H-chromen-2-one], for which the melting point lay in the range of 225 to 227 °C. Besides, in the data set with Smn protein, the EC1.5x (concentration giving 1.5-fold Smn protein increase) fell in the range of 3000 to 10000 nM; the “maximum fold (Fold) increase” value is “*** (fold increase between >1.35 and ≤1.5)”. Besides, the EC (1.5-fold) in data set [1] (setting [2]) lay in the range of 0.1 to 0.3 µM.

As for `Cc1cn2cc(-c3cc4ccc(CCCNC5CCOC5)cc4oc3=O)nc2c(C)n1` (centres unmarked) [Compound 939, 3-(6,8-dimethylimidazo[1,2-a]pyrazin-2-yl)-7-[3-(tetrahydrofuran-3-ylamino)propyl]-2H-chromen-2-one], the melting point fell in the range of 177 to 180 °C. For the same compound, in the data set on Smn protein, the EC1.5x (concentration giving 1.5-fold Smn protein increase) was less than 300 nM and the “maximum fold (Fold) increase” value is listed as “***** (fold increase >1.65)”. For the same compound, in data set [1] (setting [2]), the EC (1.5-fold) was less than 0.1 µM.

Consider `Cc1cn2cc(-c3cc4ccc(N5CC(N6CCCCC6)C5)cc4oc3=O)nc2c(C)n1` [Compound 951, 3-(6,8-dimethylimidazo[1,2-a]pyrazin-2-yl)-7-[3-(piperidin-1-yl)azetidin-1-yl]-2H-chromen-2-one], for which the melting point was in the range of 284 to 286 °C. Besides, in the data set with Smn protein, the EC1.5x (concentration giving 1.5-fold Smn protein increase) fell in the range of 1000 to 3000 nM; the “maximum fold (Fold) increase” value was “**** (fold increase between >1.5 and ≤1.65)”. Also, the EC (1.5-fold) in data set [1] (setting [2]) was less than 0.1 µM.

Turning to `O=c1oc2cc(N3CCN(CCO)CC3)ccc2cc1-c1cc2ccccn2n1` [Compound 190, 7-[4-(2-hydroxyethyl)piperazin-1-yl]-3-(pyrazolo[1,5-a]pyridin-2-yl)-2H-chromen-2-one], the melting point lay in the range of 201 to 205 °C. Further, the “maximum fold (Fold) increase” value in the data set on Smn protein was “** (fold increase between >1.2 and ≤1.35)”. Besides, the EC (1.5-fold) in data set [1] (setting [2]) was 1 to 3 µM.

As to `Cc1cn2cc(-c3cc4ccc(C5CCN(CCO)CC5)cc4oc3=O)ccc2n1` [Compound 829, 7-[1-(2-hydroxyethyl)piperidin-4-yl]-3-(2-methylimidazo[1,2-a]pyridin-6-yl)-2H-chromen-2-one], the melting point was in the range of 222 to 226 °C. For the same compound, in the data set with Smn protein, the EC1.5x (concentration giving 1.5-fold Smn protein increase) is less than 300 nM and the “maximum fold (Fold) increase” value is “***** (fold increase >1.65)”. Further, the EC (1.5-fold) in data set [1] (setting [2]) is less than 0.1 µM.

`O=C(O)C(F)(F)F.O=c1oc2cc(N3CCNCC3)ccc2cc1-c1nc(C(F)(F)F)cs1` [Compound 52, 7-(piperazin-1-yl)-3-[4-(trifluoromethyl)-1,3-thiazol-2-yl]-2H-chromen-2-one trifluoroacetate]: the melting point is 221 to 229 °C. For the same compound, in the data set with Smn protein, the “maximum fold (Fold) increase” value is “* (maximum fold increase of ≤1.2)”. Moreover, the EC (1.5-fold) in data set [1] (setting [2]) fell in the range of 0.3 to 1 µM.

In turn, `C[C@@H]1CN(c2ccc3cc(-c4cn5cc(C6CC6)cc(F)c5n4)c(=O)oc3c2)C[C@H](C)N1` [Compound 497, 3-(6-cyclopropyl-8-fluoroimidazo[1,2-a]pyridin-2-yl)-7-[(3R,5S)-3,5-dimethylpiperazin-1-yl]-2H-chromen-2-one] yielded a melting point of 257 to 267 °C. The “maximum fold (Fold) increase” value in the data set on Smn protein was “* (maximum fold increase of ≤1.2)”. Further, the EC (1.5-fold) in data set [1] (setting [2]) fell in the range of 0.3 to 1 µM.

`Cc1nc(-c2cc3ccc(N4CCCN(C)CC4)cc3oc2=O)cn1-c1ccccn1` [Compound 453, 7-(4-methyl-1,4-diazepan-1-yl)-3-[2-methyl-1-(pyridin-2-yl)-1H-imidazol-4-yl]-2H-chromen-2-one] returned a melting point of 192 to 196 °C. Further, the “maximum fold (Fold) increase” value with Smn protein is “* (maximum fold increase of ≤1.2)”. Besides, in data set [1] (setting [2]), the EC (1.5-fold) was 3 to 30 µM.
